Each molecule was assayed on benzodiazepine receptors (assay: in vivo displacement of 3H-flunitrazepam binding from brain benzodiazepine receptors). Conditions: dose reducing specific 3H-flunitrazepam binding in living mouse brain to 50% of control; test substance intraperitoneally 15 min before 3H-FNM i.v.
Design: species or system mice
Text: The pharmaceutical properties of the compounds of the invention can be illustrated by determining their capability for displacing radioactive labelled flunitrazepam from benzodiazepine receptors.
The displacement activity of the compounds of the invention may be found by determining the ED50 value. The ED50 value represents the dose (mg/kg) of a test substance which causes the specific binding of flunitrazepam to benzodiazepine receptors in a living brain to be reduced to 50% of the control value.
Such an in vivo test is carried out as follows:
Principle. Twenty minutes after a dose of ^3 H-flunitrazepam (^3 H-FNM) (200 μCi/kg, i.v.) the amount of specific ^3 H-FNM binding to brain benzodiazepine receptors has reached its maximal value.
Test procedure. Suspensions of test substances (2 mg/ml) are prepared in 5% Duphasol-X (TM Duphar, castor oil-ethylene oxide derivative for emulsifying and solubilizing oil and other water-insoluble substances) by sonification for 10 min using a Branson B15 microtip ultrasonifier (setting 7). Groups of three mice (female, NMR, 18-22 grams) are injected with the test substance at 100 mg/kg intraperitoneally. Fifteen minutes after test substance administration the mice are challenged with 4 μCi intravenously of ^3 H-FNM (70-90 Ci/mole) in 200 μl physiological saline. Twenty minutes after ^3 H-FNM administration mice are sacrificed by decapitation, the forebrains rapidly excised (within 30 sec) and homogenized in 12 ml of icecold 25 mM KH2 PO4, pH 7.1, using an Ultra-Turrax homogenizer fitted with an N 10 shaft. […] The amounts of radioactivity on the filters are determined by conventional scintillation counting. […]
Results. The ED50 value is determined from dose response curves. If only one dose of test substance is administered the ED50 value is calculated as follows, provided that the inhibition of specific binding is within the range of 25-75%: [formula] where Co is specific binding in controls and Cx is specific binding in mice treated with test substance.
For `O=c1c2c(-c3noc(C4CC4)n3)ncn2c2ccccc2n1Cc1ccccc1` [Compound 1, 5-benzyl-3-(5-cyclopropyl-1,2,4-oxadiazol-3-yl)-4,5-dihydro-4-oxo-imidazo[1,5-a]quinoxaline], the ED50 was 1.2 mg/kg. With `Cn1c(=O)c2c(-c3noc(C4CC4)n3)ncn2c2cccc(C(F)(F)F)c21` [Compound 2, 3-(5-cyclopropyl-1,2,4-oxadiazol-3-yl)-4,5-dihydro-5-methyl-4-oxo-6-trifluoromethyl-imidazo[1,5-a]quinoxaline] the ED50 was 0.09 mg/kg. For `Cn1c(=O)c2c(-c3nc(C4CC4)no3)ncn2c2cccc(C(F)(F)F)c21` [Compound 6, 3-(3-cyclopropyl-1,2,4-oxadiazol-5-yl)-4,5-dihydro-5-methyl-4-oxo-6-trifluoromethylimidazo[1,5-a]quinoxaline], the ED50 was 0.21 mg/kg.
